Results published in US11484539B2, “Compounds and their uses for alleviating menopause-associated symptoms” (Estetra SPRL, priority 2018, dated 2022).

How the values were obtained:
[1] = test system: post-menopausal women; experiment: Number of patients with biopsies (endometrial biopsy); format: in vivo
Procedure: If during the course of the trial, a double layer endometrial thickness ≥15 mm was detected on TVUS and/or abnormal uterine bleeding (in the judgement of the gynecologist in light of the oestrogen therapy) was reported by a non-hysterectomised person, they underwent an endometrial biopsy and was treated with progestin (10 mg dydrogesterone) QD until end of Week 11 in a sequential way (i.e., a 14 day progestin treatment period followed by a 14 day progestin treatment pause) in addition to the E4/placebo treatment. […] If an abnormal uterine bleeding occurred again after a first normal endometrial biopsy, a thorough gynaecological examination and a TVUS were performed. If necessary in the judgment of the gynecologist, a second endometrial biopsy was performed. After the E4/Placebo treatment period, all non-hysterectomised subjects (including those having received the progestin previously) received progestin therapy for 14 days with 10 mg dydrogesterone QD.
1. Number of patients with biopsies

[2] = test system: post-menopausal women; experiment: Adverse Events (AEs, TEAEs); format: in vivo
Excerpt: This is confirmed by the following statistical analysis. Using a Poisson regression model with a random effect for the patient and treatment group as a covariate to model the count of TEAEs in the different treatment groups, it can be shown that there is no statistical difference between the treatment groups (p value of 0.099). Second, a chi-square test was used to assess if the prevalence of patients reporting TEAEs in each treatment group was similar. No statistical difference was found between the treatment groups (p value of 0.575).

In the case of `C[C@]12CC[C@@H]3c4ccc(O)cc4CC[C@H]3[C@@H]1[C@@H](O)[C@@H](O)[C@@H]2O` [E4, 1,3,5 (10)-estratrien-3,15alpha,16alpha,17beta-tetrol], the “Number of patients with biopsies” value ([1]; 2.5 mg) is reported as 4, the “Number of patients with biopsies” value ([1]; 5 mg) is reported as 5 and the “Number of patients with biopsies” value ([1]; 10 mg) is reported as 11. For the same compound, the “Number of patients with biopsies” value ([1]; 15 mg) was 9, the “Requirements for biopsies compared with the 10 mg per day group” value ([1]; 15 mg per day group) was “less requirements for biopsies” and the “Count of Treatment Emergent AEs (TEAEs)” value ([2]; 2.5 mg) was 61. For the same compound, the “Percentage of patients with TEAE leading to Study Discontinuation” value (shortened to “Percentage of patients with TEAE leading”) ([2]; 2.5 mg) was 1.9%, the “Percentage of patients with severe TEAE” value ([2]; 2.5 mg) was 7.7% and the “Count of Treatment Emergent AEs (TEAEs)” value ([2]; 5 mg) was 63. For the same compound, the “Percentage of patients with TEAE leading” value ([2]; 5 mg) was 6.4%, the “Percentage of patients with severe TEAE” value ([2]; 5 mg) was 10.6% and the “Count of Treatment Emergent AEs (TEAEs)” value ([2]; 10 mg) was 95. The “Percentage of patients with TEAE leading” value ([2]; 10 mg) was 5.6%, the “Percentage of patients with severe TEAE” value ([2]; 10 mg) was 7.4% and the “Average AEs per patient, in patients who had AEs” value ([2]; 10 mg group) was 3.2. The “Count of Treatment Emergent AEs (TEAEs)” value ([2]; 15 mg) was 82, the “Percentage of patients with TEAE leading” value ([2]; 15 mg) was 4.1% and the “Percentage of patients with severe TEAE” value ([2]; 15 mg) was 6.1%. The “Average AEs per patient, in patients who had AEs” value ([2]; 15 mg group) was 2.6 and the “TEAEs compared with the 10 mg group” value ([2]; 15 mg group) was “less TEAEs than patients in the 10 mg group”.
